Measurements from PMC12081876, “Identification of PTGR2 inhibitors as a new therapeutic strategy for diabetes and obesity” (EMBO Molecular Medicine, 2025).
Several values for one entry are separate records, joined by “and”; a condition that tells them apart may be missing. Equal entries are not always repeated.

Assays:
wild-type mPPARγ = biological target: T1, wild-type mPPARγ (Mus musculus, UniProt P37238); test: PPRE reporter assay in HEK293T cells, wild-type mPPARγ; assay type: cell-based, murine; parameters: key to PPRE reporter activity, Fig 1M replicates: luciferase activity normalized to TK reporter signal; conditions: for PPRE reporter activity, Fig 1M replicates: PPARg WT
T1 construct: host or cells: HEK293T
T1 sequence (P37238 1-505): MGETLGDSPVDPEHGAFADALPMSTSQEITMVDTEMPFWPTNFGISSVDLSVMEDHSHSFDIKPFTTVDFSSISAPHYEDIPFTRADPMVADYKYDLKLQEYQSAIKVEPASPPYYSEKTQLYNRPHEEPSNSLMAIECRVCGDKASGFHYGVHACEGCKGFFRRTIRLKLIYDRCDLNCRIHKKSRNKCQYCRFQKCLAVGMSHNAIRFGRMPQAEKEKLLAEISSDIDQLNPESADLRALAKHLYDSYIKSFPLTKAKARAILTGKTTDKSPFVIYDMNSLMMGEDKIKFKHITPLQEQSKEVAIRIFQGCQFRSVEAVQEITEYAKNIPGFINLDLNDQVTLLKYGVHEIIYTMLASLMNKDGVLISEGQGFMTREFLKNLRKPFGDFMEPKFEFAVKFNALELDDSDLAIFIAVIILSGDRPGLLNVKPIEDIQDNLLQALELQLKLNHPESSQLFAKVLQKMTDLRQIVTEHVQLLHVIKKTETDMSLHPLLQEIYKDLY
Method: For PPRE reporter assay, HEK293T cells were seeded in 24-well plates at 1 × 10^5 cells/well. […] The luciferase activity was measured by Luc-Pair™ Duo-Luciferase HS Assay Kit (cat. no. LF600, Promega, USA) and normalized to the TK reporter signal.

[1] = test system: HFHSD-fed obese C57BL6/J mice; test: Fasting glucose in HFHSD-fed mice; assay type: in vivo, mouse; parameters: Fasting glucose, Average / Fasting glucose (individual mouse): unit not given here; conditions: for Fasting glucose, Average / Fasting glucose (individual mouse): Figure 5K; for Fasting glucose, Average: 100 mg/kg/day; for Fasting glucose (individual mouse): BPRPT0245 group
Method: Ptgr2^+/+ and Ptgr2^−/− mice were created by the Transgenic Mouse Model Core Facility of the National Core Facility for Biopharmaceuticals, Ministry of Science and Technology, Taiwan and the Animal Resources Laboratory of National Taiwan University Centers of Genomic and Precision Medicine. C57BL6/J mice were purchased from National Laboratory Animal Center. All animal experiments were performed according to institutional ethical guidelines and were approved by the Institutional Animal Care and Use Committee (IACUC) of National Taiwan University Medical College (IACUC No.: 20140456). All mice were housed under standard conditions at 23 °C and 12/12 h. light/dark (7 AM–7 PM) cycle in animal centers of the National Taiwan University Medical College, which is accredited by the Association for Assessment and Accreditation of Laboratory Animal Care International (AAALAC). Mice were provided shelters and sticks weekly. We used adequate anesthetic procedure to reduce pain, suffering and distress according to our animal center regulation. We reported expected or unexpected adverse events to the veterinarian of our animal center. The humane endpoints include 20% weight loss, rough hair coat, hunched posture, lethargy or persistent, or any condition interfering with eating or drinking. Eight-week-old male mice were fed on either a high-fat high-sucrose diet (HFHSD) (cat. no. D12331, Research Diets) or a regular chow diet (cat no. 5001, Lab Diet). BPRPT0245 was dissolved 3% dimethylacetamide and 10% cremophor in water and administered daily to HFHSD-fed obese C57BL6/J mice by oral gavage (100 mg/kg/day).

3T3-L1 adipocytes = test: Intracellular 15-keto-PGE2 content of 3T3-L1 cells (LC-MS/MS); assay type: cell-based, mouse
Method: The lysate was centrifuged at 300 × g for 5 min to remove cellular debris. The supernatant was transferred to a new tube. The C18 SPE cartridge was sequentially activated with 2 mL methanol and 2 mL ddH2O. The lower-layer sample was transferred to the C18 SPE cartridge. Once the lysate passed the cartridge, the SPE cartridge was washed with 2 mL 15% methanol and 5 mL ddH2O. The sample was then eluted with 5 mL HPLC-degree methanol and aliquoted into new 2-mL tubes. The elute was air-dried using a SpeedVac system and stored at −80 °C. The dried samples were reconstituted with 60 μL methanol before analysis.

SMILES	Fasting glucose, Average ([1]; week 0)	Fasting glucose, Average ([1]; week 2)	Fasting glucose, Average ([1]; week 4)	Fasting glucose, Average ([1]; week 6)	Fasting glucose, Average ([1]; week 8)	Fasting glucose, Average ([1]; week 10)	Fasting glucose, Average ([1]; week 12)	Fasting glucose, Average ([1]; week 14)	Fasting glucose, Average ([1]; week 16)	Fasting glucose, Average ([1]; week 18)	Fasting glucose, Average ([1]; week 20)	Fasting glucose, Average ([1]; week 22)	Fasting glucose, Average ([1]; week 24)	also measured
CCCCCC(=O)CC[C@H]1[C@H](O)CC(=O)[C@@H]1C/C=C\CCCC(=O)O [13,14-dihydro-15-keto-PGE2]	–	–	–	–	–	–	–	–	–	–	–	–	–	PPRE reporter activity, Fig 1M replicates (wild-type mPPARγ; 1314dh-15kPGE2 5uM): 0.8192 and 0.7939 and 0.9277; PPRE reporter activity, Fig 1M replicates (wild-type mPPARγ; 1314dh-15kPGE2 10uM): 1.0416 and 0.7874 and 1.0502
Cc1[nH]c2nc(C(C)N3CCN(c4ccccc4)CC3)nn2c(=O)c1Cc1ccc(F)cc1 (stereo not drawn) [BPRPT245]	172.4	215	172.4	168.6	182.6	183.2	184.933	181.467	186.667	173.933	159.8	158.933	164.4	–
CCCCCC(=O)/C=C/[C@H]1[C@H](O)CC(=O)[C@@H]1C/C=C\CCCC(=O)O [15-keto-PGE2, 15-keto-prostaglandin E2]	–	–	–	–	–	–	–	–	–	–	–	–	–	PPRE reporter activity, Fig 1M replicates (wild-type mPPARγ; 15kPGE2 1uM): 0.8257 and 0.8644 and 0.9986; PPRE reporter activity, Fig 1M replicates (wild-type mPPARγ; 15kPGE2 5uM): 1.6663 and 1.771 and 1.8768; PPRE reporter activity, Fig 1M replicates (wild-type mPPARγ; 15kPGE2 10uM): 2.316 and 1.9846 and 1.9282; PPRE reporter activity, wild-type mPPARγ (wild-type mPPARγ; HEK293T): dose-dependently increases the reporter activity of PPARγ; increase of intracellular 15-keto-PGE2 levels (3T3-L1 adipocytes; exogenously added 15-keto-PGE2 10–20 μM, 3T3-L1 adipocytes): 1.25 to 1.78 fold
Cc1[nH]c2nc(C(C)N3CCN(c4ccccc4)CC3)nn2c(=O)c1Cc1ccc(F)cc1 (stereo not drawn) [BPRPT0245]	172.4	215	172.4	168.6	182.6	183.2	184.933	181.467	186.667	173.933	159.8	158.933	164.4	intracellular 15-keto-PGE2 concentrations (3T3-L1 adipocytes; differentiated 3T3-L1 adipocytes treated with BPRPT0245): increased intracellular 15-keto-PGE2 concentrations in a dose-dependent manner; fasting plasma glucose ([1]; 100 mg/kg/day oral, HFHSD-fed mice, vs vehicle): lowered fasting plasma glucose; Fasting glucose (individual mouse) ([1]; week 0): 140 and 191 and 194 and 229 and 230 and 148 and 190 and 111 and 179; Fasting glucose (individual mouse) ([1]; week 2): 178 and 220 and 216 and 291 and 182 and 199 and 225 and 148; Fasting glucose (individual mouse) ([1]; week 4): 162 and 198 and 190 and 178 and 194 and 163 and 177; Fasting glucose (individual mouse) ([1]; week 6): 151 and 215 and 171 and 164 and 188 and 139 and 181; Fasting glucose (individual mouse) ([1]; week 8): 164 and 212 and 172 and 202 and 171 and 198 and 219; Fasting glucose (individual mouse) ([1]; week 10): 224 and 198 and 153 and 169 and 162 and 150 and 171; Fasting glucose (individual mouse) ([1]; week 12): 187 and 219 and 140 and 175 and 200 and 156 and 161 and 177; Fasting glucose (individual mouse) ([1]; week 14): 220 and 210 and 169 and 202 and 174 and 149 and 142; Fasting glucose (individual mouse) ([1]; week 16): 212 and 199 and 167 and 164 and 191 and 183 and 171; Fasting glucose (individual mouse) ([1]; week 18): 179 and 178 and 134 and 146 and 197 and 201 and 147 and 181 and 202; Fasting glucose (individual mouse) ([1]; week 20): 179 and 154 and 153 and 170 and 174 and 220 and 131 and 171 and 134; Fasting glucose (individual mouse) ([1]; week 22): 195 and 156 and 123 and 149 and 148 and 163 and 132 and 201 and 161; Fasting glucose (individual mouse) ([1]; week 24): 119 and 164 and 166 and 168 and 204 and 174
